Assay results reported in US10272117B2, “Methods of using an activator of cereblon for neural cell expansion and the treatment of central nervous system disorders” (Celgene Corporation, priority 2014, dated 2019).

Tested on: zebrafish embryos
Experiment: Quantitative PCR of gene expression in zebrafish embryos
Type: in vivo
Experimental: BRD7-knockdown zebrafish embryos show similar phenotypes as CRBN-overexpressing zebrafish embryos. For example, expression of HuC in untreated, CRBN-overexpressing, and BRD7-knockdown zebrafish embryos was compared by quantitative PCR. Quantitative PCR was performed as follows: 1.7 μg of random […] and oligo-dT primed cDNA synthesized by ReverTra Ace qPCR RT Kit (TOYOBO, Japan) (as template) were used for reverse transcription by THUNDERBIRD™ SYBR® qPCR Mix (Toyobo, Japan). 0.25 mM of each forward and reverse primers were used in the reaction, wherein the sequence of the forward primer was 5′-[…]-3′ (SEQ ID NO: 9); and the sequence of the reverse primer was 5′-[…]-3′ (SEQ ID NO: 10).
Expression of Pou5f1 (Oct3/4), c-Myc, Sox2, and Nanog in zebrafish embryos was analyzed by quantitative PCR. Quantitative RT (qRT)-PCR was performed as follows: 1.7 μg of random hexamer and oligo-dT primed cDNA synthesized by ReverTra Ace qPCR RT Kit (TOYOBO, Japan) (as template) were used for reverse transcription by THUNDERBIRD™ SYBR® qPCR Mix (Toyobo, Japan). 0.25 mM of each forward and reverse primers was used in the reaction. The sequences of primers for c-Myc are as follows: forward primer is 5′-[…]-3′ (SEQ ID NO: 15), and reverse primer is 5′-GTAAAACGACGGCCAGT-3′ (SEQ ID NO: 16). The sequences of primers for sox2 are as follows: forward primer is 5′-ACCCCGGAGGAAAACCAA-3′ (SEQ ID NO: 17), and reverse primer is 5′-CCCGGCAGGGTGTACTTG-3′ (SEQ ID NO: 18). The sequences of primers for nanog are as follows: forward primer is 5′-TACCCAACACACCAGCTTC-3′ (SEQ ID NO: 19), and reverse primer is 5′-GAAGGGTGTTTTTGGAGGA-3′ (SEQ ID NO: 20).
Expression of a pool of three genes, Ascl1, Brn2 (Pou3f2), and Myt1la, is sufficient to directly reprogram embryonic and postnatal fibroblasts into functional neurons. See, e.g., Vierbuchen and Wernig, Nat Biotechnol. 29:892-907 […]. […] Primer sequences for amplification for Ascl1a are as follows: forward primer is 5′-ACGAGCATGACGCCGTA-3′ (SEQ ID NO: 21), and reverse primer is 5′-[…]-3′ (SEQ ID NO: 22). Primer sequences for amplification for Pou3f2b are as follows: forward primer is 5′-[…]-3′ (SEQ ID NO: 23), and reverse primer is 5′-[…]-3′(SEQ ID NO: 24). Primer sequences for amplification for Myt1la are as follows: forward primer is 5′-[…]-3′ (SEQ ID NO: 25), and reverse primer is 5′-[…]-3′ (SEQ ID NO: 26). FIG. […]
Notch3 and Neuropilin2b (Nrp2b) are required for cell proliferation progression. Notch3 regulates the timing of neural differentiation from undifferentiated or immature cells, and Nrp2b regulates cell proliferation and remodeling in mesenchymal stem cells by cooperating with PDGF (platelet-derived growth factor). Therefore, expression of Notch3 and Neuropilin 2b (Nrp2b) was analyzed in untreated and CRBN-overexpressing zebrafish embryos by quantitative PCR. The primers used for Notch3 are as follows: the sequence for forward primer is 5′-[…]-3′ (SEQ ID NO: 27), and the sequence for reverse primer is 5′-[…]-3′ (SEQ ID NO: 28). The primers used for Nrp2b are as follows: the sequence of forward primer is 5′-[…]-3′ (SEQ ID NO: 29), and the sequence of reverse primer is 5′-[…]-3′ (SEQ ID NO: 30). FIG. 29A is a histogram showing the mRNA level of Notch3 and Nrp2b in untreated, CRBN-overexpressing, and thalidomide-treated zebrafish embryos at 11 hpf by quantitative PCR. As shown, expression of Notch3 in the CRBN-overexpressing embryos increased to 1.8-fold of the level in the untreated embryos at 11 hpf, and expression of Nrp2b in the CRBN-overexpressing embryos increased to 2.7-fold of the level in the untreated embryos at the same stage.
Elval3 (Huc) is a neural progenitor marker. Expression of Elavl3 (Huc) was also analyzed by quantitative PCR and in situ hybridization. […]

[1] = 11 hpf, compared to untreated embryos

Substance	expression of Nanog (change) (11 hpf, FIG. 13)	expression of Pou5f1 (change) (11 hpf, FIG. 13)	expression of Zic3 (change) (11 hpf, FIG. 13)	Nanog expression [1] [fold]	Pou5f1 expression [1] [fold]	Sox2 expression [1] [fold]	Zic3 expression [1] [fold]	expression of Ascl1a (change) (23 hpf)	expression of Pou3f2b (change) (23 hpf)	expression of Ascl1 (change) (11 hpf)	expression of Brn2 (Pou3f2b) (change) (11 hpf)	expression of Myt1l (change) (11 hpf)	HuC (Elavl3) expression level (11 hpf, fold of level in untreated embryos) [fold]	expression of Ascl1 (change) (28 hpf)	expression of Myt1la (change) (28 hpf)	expression of Pou3f3a (change) (28 hpf)	expression of Nanog (change) (28 hpf)	expression of Pou3f2b (change) (28 hpf)	expression of Sox2 (change) (28 hpf)	expression of c-Myc (change) (28 hpf)
5′-AGAGCTGTAGCTGGTTCCCCATTTC-3′ (all phosphorodiamidate morpholino (PMO)) [CRBN-knockdown, 25-mer antisense morpholino oligonucleotide (AMO) used for the CRBN gene knockdown, reference compound]	decreased	decreased	decreased	0.8	0.8	0.7	0.8	decreased	decreased	–	–	–	–	–	–	–	–	–	–	–
5′-TGTGTTTCTTGTGCTTTTTGCCCAT-3′ (all phosphorodiamidate morpholino (PMO)) [BRD7-knockdown, 25-mer antisense morpholino oligonucleotide (AMO) used for the BRD7 gene knockdown]	increased	significantly increased	increased	–	–	–	–	–	–	increased	increased	increased	1.7	increased	increased	increased	–	–	–	–
5′-TTCCTGTGCCTCCTCAGTCTCCATC-3′ (all phosphorodiamidate morpholino (PMO)) [Ikaros-knockdown, 25-mer antisense morpholino oligonucleotide (AMO) used for the Ikaros gene knockdown]	–	–	–	–	–	–	–	increased	increased	–	–	–	–	increased	increased	increased	activated	increased	activated	activated
